ChEMBL document CHEMBL1201862, “PubChem BioAssay data set” (2004)
Calls of active or inactive are those of the source.

How the values were obtained:
[1] = molecular target: T1, Corticotropin-releasing factor receptor 2/Corticotropin-releasing factor-binding protein (Homo sapiens, UniProt P24387+Q13324); experiment: activators of CRF receptor 2 with binding protein – uHTS hits, confirmation (AID 602473); type: functional; conditions: read-out: EC50_Mean
T1 sequence (Q13324 whole entry): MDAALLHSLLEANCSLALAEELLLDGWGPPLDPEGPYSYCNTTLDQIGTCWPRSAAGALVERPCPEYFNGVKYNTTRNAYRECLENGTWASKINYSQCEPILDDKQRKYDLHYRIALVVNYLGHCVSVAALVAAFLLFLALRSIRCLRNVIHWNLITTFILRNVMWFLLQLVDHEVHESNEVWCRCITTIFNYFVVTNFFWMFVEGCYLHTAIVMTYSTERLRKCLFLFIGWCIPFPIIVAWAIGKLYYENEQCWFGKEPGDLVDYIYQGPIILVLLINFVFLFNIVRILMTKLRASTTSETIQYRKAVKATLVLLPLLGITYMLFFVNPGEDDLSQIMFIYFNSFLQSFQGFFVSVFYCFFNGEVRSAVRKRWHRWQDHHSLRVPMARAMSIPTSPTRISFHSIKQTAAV
T1 sequence (P24387 whole entry): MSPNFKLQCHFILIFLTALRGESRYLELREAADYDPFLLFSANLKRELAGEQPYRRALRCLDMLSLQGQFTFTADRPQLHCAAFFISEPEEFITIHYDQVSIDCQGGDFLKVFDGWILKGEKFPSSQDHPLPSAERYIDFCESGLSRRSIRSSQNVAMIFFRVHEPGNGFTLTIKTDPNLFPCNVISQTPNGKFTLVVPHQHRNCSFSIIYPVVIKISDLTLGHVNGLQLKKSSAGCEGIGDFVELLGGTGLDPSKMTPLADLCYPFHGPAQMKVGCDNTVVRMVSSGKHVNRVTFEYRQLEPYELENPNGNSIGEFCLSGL

[2] = molecular target: Voltage-dependent T-type calcium channel subunit alpha-1H (Homo sapiens, UniProt O95180); type: functional;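 note: channel activity triggered by adding a high calcium stimulation buffer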
Sequence of Voltage-dependent T-type calcium channel subunit alpha-1H (O95180 whole entry): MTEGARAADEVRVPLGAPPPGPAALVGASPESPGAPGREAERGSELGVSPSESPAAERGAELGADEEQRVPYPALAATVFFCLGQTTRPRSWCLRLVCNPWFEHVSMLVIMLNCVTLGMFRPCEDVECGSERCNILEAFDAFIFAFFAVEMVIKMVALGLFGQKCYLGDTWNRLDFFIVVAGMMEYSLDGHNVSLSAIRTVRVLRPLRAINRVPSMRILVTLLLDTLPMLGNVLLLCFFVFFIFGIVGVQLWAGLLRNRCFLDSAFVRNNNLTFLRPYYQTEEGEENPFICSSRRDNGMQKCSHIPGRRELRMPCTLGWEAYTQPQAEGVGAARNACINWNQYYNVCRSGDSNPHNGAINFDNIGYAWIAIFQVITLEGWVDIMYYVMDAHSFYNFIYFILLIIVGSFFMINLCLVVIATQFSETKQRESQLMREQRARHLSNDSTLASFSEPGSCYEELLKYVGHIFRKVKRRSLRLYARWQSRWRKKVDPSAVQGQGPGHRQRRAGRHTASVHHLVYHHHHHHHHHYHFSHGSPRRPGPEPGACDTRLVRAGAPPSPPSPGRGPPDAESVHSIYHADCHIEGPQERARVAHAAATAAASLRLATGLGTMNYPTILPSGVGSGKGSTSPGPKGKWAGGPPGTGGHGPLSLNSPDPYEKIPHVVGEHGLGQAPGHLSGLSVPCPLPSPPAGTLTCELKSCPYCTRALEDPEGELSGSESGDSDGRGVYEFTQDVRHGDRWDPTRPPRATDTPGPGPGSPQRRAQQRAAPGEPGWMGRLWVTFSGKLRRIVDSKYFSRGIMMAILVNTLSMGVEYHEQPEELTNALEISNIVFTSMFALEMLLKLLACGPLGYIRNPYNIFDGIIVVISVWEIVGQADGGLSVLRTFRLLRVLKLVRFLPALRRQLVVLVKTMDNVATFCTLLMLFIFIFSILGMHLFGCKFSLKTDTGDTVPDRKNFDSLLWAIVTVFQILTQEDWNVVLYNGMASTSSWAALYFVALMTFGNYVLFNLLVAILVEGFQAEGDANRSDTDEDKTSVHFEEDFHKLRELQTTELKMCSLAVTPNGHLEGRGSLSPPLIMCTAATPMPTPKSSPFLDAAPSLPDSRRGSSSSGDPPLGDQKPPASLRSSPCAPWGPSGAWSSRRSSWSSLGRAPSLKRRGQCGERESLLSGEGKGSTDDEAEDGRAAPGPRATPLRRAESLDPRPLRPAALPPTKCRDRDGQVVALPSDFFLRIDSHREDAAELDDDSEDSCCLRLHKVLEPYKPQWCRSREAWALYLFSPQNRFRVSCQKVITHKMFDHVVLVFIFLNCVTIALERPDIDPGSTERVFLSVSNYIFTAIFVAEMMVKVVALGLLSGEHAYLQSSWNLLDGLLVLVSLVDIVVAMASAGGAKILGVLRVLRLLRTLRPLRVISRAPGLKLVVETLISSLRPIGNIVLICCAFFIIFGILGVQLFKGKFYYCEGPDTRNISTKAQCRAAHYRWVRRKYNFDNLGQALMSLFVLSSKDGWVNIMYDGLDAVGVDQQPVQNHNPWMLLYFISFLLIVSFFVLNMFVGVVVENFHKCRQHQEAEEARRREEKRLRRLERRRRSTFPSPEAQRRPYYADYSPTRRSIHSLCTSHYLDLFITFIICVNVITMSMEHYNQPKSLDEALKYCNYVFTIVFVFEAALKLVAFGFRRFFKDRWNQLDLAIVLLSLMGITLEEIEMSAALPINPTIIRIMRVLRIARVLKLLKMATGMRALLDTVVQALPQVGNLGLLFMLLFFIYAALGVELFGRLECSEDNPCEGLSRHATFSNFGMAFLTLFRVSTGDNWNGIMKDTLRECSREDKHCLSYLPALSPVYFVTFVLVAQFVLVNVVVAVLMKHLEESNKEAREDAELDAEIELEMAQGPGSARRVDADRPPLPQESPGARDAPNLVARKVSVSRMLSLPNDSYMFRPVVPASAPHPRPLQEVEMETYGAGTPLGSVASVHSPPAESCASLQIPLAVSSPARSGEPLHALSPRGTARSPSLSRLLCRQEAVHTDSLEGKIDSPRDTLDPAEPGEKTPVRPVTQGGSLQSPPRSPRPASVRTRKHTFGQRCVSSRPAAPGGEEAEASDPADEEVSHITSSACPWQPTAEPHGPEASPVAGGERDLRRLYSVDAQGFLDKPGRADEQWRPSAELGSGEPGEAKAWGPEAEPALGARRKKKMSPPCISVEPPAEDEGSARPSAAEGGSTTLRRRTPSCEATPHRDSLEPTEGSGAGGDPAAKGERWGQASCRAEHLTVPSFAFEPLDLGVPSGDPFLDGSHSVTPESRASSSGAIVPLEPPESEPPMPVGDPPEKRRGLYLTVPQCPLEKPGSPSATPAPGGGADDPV

[3] = molecular target: T1, Corticotropin-releasing factor receptor 2/Corticotropin-releasing factor-binding protein; experiment: Dose Response confirmation of uHTS hits for small molecule antagonists of the CRF-binding protein and CRF-R2 receptor complex.; type: functional; conditions: read-out: IC50_Mean
[4] = molecular target: T2, Carboxy-terminal domain RNA polymerase II polypeptide A small phosphatase 1 (Homo sapiens, UniProt Q9GZU7); experiment: inhibitors of CTDSP1, concentration-response testing, biochemical assay, absorbance-based, actives from ultra-high-throughput screening (AID 540297); type: functional
T2 sequence (Q9GZU7 whole entry): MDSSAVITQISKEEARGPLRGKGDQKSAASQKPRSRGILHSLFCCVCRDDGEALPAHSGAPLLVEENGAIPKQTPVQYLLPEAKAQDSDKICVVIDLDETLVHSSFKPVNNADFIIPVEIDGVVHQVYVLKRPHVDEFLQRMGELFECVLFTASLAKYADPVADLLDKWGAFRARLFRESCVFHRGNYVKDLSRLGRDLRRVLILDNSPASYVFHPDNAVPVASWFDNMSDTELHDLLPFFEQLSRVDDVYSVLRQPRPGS

[5] = molecular target: Eukaryotic translation initiation factor 4E (Mus musculus, UniProt P63073); experiment: eIF4E–eIF4G protein interaction inhibitors, dose response, biochemical, TR-FRET (AID 855); type: functional;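 note: potency for disrupting eIF4E binding to eIF4GI seen as loss of FRET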
Sequence of Eukaryotic translation initiation factor 4E (P63073 whole entry): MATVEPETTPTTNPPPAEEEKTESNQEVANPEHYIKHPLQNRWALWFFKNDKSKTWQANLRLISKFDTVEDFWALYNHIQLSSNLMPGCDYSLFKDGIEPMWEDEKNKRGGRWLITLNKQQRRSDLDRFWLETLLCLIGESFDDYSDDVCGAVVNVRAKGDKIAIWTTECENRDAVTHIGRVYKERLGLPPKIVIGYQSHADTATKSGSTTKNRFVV

Cytochrome P450 2C9 = Cytochrome P450 2C9 (Homo sapiens, UniProt P11712); conditions: Potency
Sequence of Cytochrome P450 2C9 (P11712 whole entry): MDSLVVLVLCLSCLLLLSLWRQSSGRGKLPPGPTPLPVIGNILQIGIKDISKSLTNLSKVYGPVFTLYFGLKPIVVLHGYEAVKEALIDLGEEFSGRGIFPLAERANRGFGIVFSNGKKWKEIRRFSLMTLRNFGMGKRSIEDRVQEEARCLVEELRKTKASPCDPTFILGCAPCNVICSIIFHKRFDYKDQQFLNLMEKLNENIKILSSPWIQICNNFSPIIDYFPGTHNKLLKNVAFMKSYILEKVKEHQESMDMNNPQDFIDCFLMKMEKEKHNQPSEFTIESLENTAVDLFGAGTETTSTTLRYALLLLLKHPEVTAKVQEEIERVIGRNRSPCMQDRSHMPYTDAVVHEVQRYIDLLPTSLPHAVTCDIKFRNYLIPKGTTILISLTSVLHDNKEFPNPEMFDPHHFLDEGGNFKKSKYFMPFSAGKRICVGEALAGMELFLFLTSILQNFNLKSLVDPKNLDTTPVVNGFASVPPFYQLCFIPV

Cytochrome P450 3A4 = Cytochrome P450 3A4 (Homo sapiens, UniProt P08684); conditions: Potency;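 note: confirmatory qHTS run detecting inhibitors and substrates of CYP3A4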
Sequence of Cytochrome P450 3A4 (P08684 whole entry): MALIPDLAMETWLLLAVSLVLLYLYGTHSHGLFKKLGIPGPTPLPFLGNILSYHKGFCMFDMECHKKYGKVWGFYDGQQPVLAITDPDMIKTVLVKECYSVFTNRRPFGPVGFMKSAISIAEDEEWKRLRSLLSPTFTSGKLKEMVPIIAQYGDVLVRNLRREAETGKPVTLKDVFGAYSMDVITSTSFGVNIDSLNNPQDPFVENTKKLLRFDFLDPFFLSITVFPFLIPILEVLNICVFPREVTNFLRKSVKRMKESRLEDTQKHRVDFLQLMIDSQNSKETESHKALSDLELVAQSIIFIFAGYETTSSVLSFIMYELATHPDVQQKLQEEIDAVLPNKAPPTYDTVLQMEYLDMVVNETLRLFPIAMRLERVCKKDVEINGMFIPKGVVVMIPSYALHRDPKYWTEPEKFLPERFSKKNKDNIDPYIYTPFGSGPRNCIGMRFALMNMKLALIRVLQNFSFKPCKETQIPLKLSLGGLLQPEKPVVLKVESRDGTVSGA

[6] = molecular target: T3, Sentrin-specific protease 7 (Homo sapiens, UniProt Q9BQF6); type: functional;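 note: Luminescence-based dose-response confirmation of ultra-high-throughput screening hits, measuring inhibition of SENP7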
T3 sequence (Q9BQF6 whole entry): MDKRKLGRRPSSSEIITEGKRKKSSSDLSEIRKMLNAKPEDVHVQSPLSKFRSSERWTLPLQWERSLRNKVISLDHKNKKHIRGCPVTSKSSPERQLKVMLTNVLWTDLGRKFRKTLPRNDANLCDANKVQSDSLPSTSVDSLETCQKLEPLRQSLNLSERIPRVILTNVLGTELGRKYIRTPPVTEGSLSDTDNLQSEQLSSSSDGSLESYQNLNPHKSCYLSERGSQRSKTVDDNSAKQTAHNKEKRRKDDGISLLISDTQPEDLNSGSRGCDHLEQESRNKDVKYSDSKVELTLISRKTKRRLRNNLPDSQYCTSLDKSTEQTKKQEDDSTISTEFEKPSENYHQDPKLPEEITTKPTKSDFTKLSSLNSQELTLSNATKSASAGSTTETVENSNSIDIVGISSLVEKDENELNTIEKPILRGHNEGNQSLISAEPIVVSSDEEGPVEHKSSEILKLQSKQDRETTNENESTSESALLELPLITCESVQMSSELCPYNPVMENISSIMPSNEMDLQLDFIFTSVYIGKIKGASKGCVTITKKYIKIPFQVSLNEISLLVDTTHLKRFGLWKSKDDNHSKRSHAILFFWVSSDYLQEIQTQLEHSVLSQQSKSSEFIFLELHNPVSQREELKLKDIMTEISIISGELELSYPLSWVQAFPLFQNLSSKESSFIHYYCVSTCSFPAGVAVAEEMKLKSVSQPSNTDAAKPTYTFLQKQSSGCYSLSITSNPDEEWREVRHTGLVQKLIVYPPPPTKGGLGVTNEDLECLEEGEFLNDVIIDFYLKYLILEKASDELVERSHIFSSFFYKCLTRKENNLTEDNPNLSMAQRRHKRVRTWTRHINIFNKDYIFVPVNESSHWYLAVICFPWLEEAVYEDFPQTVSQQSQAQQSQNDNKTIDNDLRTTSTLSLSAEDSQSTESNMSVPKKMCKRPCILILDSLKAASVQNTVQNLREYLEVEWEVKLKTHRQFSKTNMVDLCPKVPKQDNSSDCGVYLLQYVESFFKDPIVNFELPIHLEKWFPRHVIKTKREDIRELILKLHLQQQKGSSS

[7] = molecular target: T4, Sentrin-specific protease 8 (Homo sapiens, UniProt Q96LD8); type: functional;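 note: luminescence read-out of SENP8 inhibition, dose-response confirmation following an ultra-high-throughput screen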
T4 sequence (Q96LD8 whole entry): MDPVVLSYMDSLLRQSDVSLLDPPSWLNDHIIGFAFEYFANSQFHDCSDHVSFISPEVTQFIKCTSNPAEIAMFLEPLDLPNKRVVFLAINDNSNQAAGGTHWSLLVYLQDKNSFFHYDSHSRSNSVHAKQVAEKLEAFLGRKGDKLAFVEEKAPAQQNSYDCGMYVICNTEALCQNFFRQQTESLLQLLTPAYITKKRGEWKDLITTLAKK

Caspase-3 = molecular target: T5, Caspase-3 (Homo sapiens, UniProt P42574); type: functional;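 note: Dose-response selectivity test against caspase-3 for candidate inhibitors of sentrin-specific proteases (SENPs)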
T5 sequence (P42574 whole entry): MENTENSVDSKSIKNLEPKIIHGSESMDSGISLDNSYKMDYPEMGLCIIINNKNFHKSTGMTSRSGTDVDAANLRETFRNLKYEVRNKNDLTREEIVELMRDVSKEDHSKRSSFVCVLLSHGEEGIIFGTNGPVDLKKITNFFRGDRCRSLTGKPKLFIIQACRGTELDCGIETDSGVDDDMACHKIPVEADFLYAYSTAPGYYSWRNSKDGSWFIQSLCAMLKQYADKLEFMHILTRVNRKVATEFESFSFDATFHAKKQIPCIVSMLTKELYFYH

[8] = molecular target: T6, Sentrin-specific protease 6 (Homo sapiens, UniProt Q9GZR1); type: functional;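 note: Luminescence-based dose-response confirmatory assay of SENP6 inhibition, following up an ultra-high-throughput screen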
T6 sequence (Q9GZR1 whole entry): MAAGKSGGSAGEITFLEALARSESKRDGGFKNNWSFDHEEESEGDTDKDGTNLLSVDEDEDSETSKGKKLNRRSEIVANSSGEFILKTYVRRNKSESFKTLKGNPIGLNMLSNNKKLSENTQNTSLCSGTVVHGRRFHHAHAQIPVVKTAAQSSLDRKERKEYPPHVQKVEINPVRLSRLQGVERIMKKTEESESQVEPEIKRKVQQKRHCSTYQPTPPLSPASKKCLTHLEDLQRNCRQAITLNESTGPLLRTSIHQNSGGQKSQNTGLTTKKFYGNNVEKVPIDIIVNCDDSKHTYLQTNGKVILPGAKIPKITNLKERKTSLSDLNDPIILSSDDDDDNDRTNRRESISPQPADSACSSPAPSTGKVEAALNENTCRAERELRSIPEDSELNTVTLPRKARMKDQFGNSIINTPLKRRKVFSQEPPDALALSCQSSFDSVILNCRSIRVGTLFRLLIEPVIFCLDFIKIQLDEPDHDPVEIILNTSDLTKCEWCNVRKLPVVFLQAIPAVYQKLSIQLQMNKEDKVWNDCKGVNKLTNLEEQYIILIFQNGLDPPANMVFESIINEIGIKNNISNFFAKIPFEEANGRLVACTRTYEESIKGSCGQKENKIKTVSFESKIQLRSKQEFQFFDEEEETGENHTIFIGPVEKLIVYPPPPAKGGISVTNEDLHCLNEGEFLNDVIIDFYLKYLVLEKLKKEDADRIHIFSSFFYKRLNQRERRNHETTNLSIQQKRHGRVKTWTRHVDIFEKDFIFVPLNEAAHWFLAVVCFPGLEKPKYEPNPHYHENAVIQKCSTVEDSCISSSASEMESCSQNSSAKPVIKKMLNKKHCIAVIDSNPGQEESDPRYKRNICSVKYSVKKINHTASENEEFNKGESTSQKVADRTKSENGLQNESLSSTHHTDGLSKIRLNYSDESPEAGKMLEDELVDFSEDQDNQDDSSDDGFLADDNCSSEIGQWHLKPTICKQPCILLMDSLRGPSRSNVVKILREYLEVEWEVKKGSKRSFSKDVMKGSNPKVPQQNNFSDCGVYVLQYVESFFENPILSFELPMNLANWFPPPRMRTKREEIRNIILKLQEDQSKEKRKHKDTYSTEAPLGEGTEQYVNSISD

[9] = molecular target: FAD-linked sulfhydryl oxidase ALR (Homo sapiens, UniProt P55789); experiment: inhibitors of human ALR sulfhydryl oxidase, dose response, biochemical, H2O2 detection, luminescence, cherry-pick (AID 493248)
Sequence of FAD-linked sulfhydryl oxidase ALR (P55789 whole entry): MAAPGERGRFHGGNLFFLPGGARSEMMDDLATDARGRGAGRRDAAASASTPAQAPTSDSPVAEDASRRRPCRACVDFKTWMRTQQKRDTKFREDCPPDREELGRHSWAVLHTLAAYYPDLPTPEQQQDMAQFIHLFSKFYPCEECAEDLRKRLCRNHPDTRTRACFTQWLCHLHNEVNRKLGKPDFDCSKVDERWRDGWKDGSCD

[10] = molecular target: Melanin-concentrating hormone receptor 1 (Homo sapiens, UniProt Q99705); experiment: Fluorescence-based counterscreen for antagonists of the G-protein coupled receptor 7 (GPR7): cell-based high throughput dose response assay to identify antagonists of the melanin-concentrating hormone receptor 1 (MCHR1).; type: functional
Sequence of Melanin-concentrating hormone receptor 1 (Q99705 whole entry): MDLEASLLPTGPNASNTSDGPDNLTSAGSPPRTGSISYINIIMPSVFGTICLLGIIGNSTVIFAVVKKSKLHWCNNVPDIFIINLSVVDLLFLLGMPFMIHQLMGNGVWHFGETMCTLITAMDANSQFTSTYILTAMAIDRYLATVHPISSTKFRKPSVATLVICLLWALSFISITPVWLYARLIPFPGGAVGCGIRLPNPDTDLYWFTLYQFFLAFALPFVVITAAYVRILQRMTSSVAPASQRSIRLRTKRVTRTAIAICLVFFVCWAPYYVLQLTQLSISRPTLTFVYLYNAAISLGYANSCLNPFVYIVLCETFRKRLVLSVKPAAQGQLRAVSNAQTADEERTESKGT

In the case of `Cc1ccccc1NC(=O)c1ccc(-c2ccc(Cl)cc2Cl)o1`, the EC50 [1] is reported as > 53 µM (inactive), the EC50 [2] is reported as 7.96 µM (active) and the IC50 [3] is reported as > 47.1 µM (inactive).
With `Cc1ccc([N+](=O)[O-])cc1NC(=O)Cc1cccs1` the IC50 [4] was 4.16 µM (active) and the IC50 [5] was 50 µM (inactive).
`Cc1nn(Cc2c(F)c(F)c(F)c(F)c2F)c(C)c1NC(=O)c1ccc(COc2ccc(F)cc2)o1` was tested, and the EC50 [2] was 4.88 µM (active).
`CC1CCC2C(=O)OC(CO)CN2C1c1ccc(Br)cc1` (stereo unspecified) was tested, and the AC50 (Cytochrome P450 2C9) was 3.98 µM (inconclusive) and the AC50 (Cytochrome P450 3A4) was 3.16 µM (inconclusive).
With `COc1ccc(/C=C/C(=O)c2ccccc2O)cc1` the IC50 [6] was 3.93 µM (active), the AC50 (Cytochrome P450 2C9) was 3.98 µM (inconclusive) and the IC50 [7] was 10.6 µM (active). The IC50 (Caspase-3) was 23.1 µM (active) and the IC50 [8] was 6 µM (active).
With `CCn1c(CNc2ccc(Cl)cc2)nnc1SCCN1CCCCC1` the AC50 [9] was 8.49 µM (active) and the IC50 [10] was 21.5 µM (not active).
With `FC(F)(F)c1cc(C(F)(F)F)c2ccc(N3CCN(c4ccc(Cl)cc4)CC3)nc2n1` the EC50 [2] was 5.43 µM (active).
